Reference: paper PMC10973839, “CHF6297: a novel potent and selective p38 MAPK inhibitor with robust anti-inflammatory activity and suitable for inhaled pulmonary administration as dry powder” (Frontiers in Pharmacology, 2024)
Where two headings read alike, the source gives them in different places.

Legend:
[1] = system: LPS-induced neutrophil influx in BALF; assay: LPS-induced BALF neutrophilia in rats
Experimental: For intratracheal (i.t.) administration of LPS or IL-1β, animals were anesthetized with sevoflurane (4% in oxygen), and a laryngoscope was moved forward into the mouth to visualize the trachea and guide the insertion of a fine-tipped PE 100 tube (air-jet delivery system) directly into the trachea and located 1–2 mm above the carina bifurcation. LPS or IL-1β at a concentration of 5 μg/kg and 0.3 μg/kg, respectively, was prepared as a saline solution in a 0.5 mL/kg volume and was blown into the airways during the spontaneous inspiration phase in an air volume of 2 mL.
Each dose group was allocated to a separate system, and each system was housed in an individual ventilated hood.
Powder generation: Compound and vehicle blends were compressed into canisters by using a hydraulic press at 50 bar to prepare a stable “tablet” and ensure a uniform pack density. The Wright Dust Feeder (WDF) comprised an electric motor, gears, a scraper blade, air entry, and a final jet and baffle array. The scraper blade scraped off a fine layer of powder, driven by the motor, and the output speed was determined by the configuration of the gears. The scraped powder was then blown out of the dust feed at its base through a jet which focused the powder stream at a baffle, thus reducing aggregation and producing a fine particulate. The WDF was attached to an aerosol conditioning pre-chamber for the delivery of the powder to the inhalation tower. The generation of the powder was monitored throughout the exposure periods either visually or electronically with a dust monitor.
Inhalation tower: The nose-only inhalation tower was a modular apparatus of anodized aluminum comprising a base unit, two animal sections, and a top section, connected to an earth lead to prevent the formation of any static build-up. During the exposures, the rats were held in restraining tubes, with their snouts protruding into the exposure chamber (see Supplementary Material, Figure 1). The rate of airflow through the WDF was 19 L/min, and that of the exhaust airflow was 20 L/min (vehicle, 0.1 and 1 mg/kg doses) or 40 L/min (0.03 mg/kg doses). The air supply and extract were monitored using in-line flowmeters and recorded manually.
The inhaled dose was derived using the following equation ([Alexander et al., 2008]): delivered dose (μg/kg) = (Conc. × RMV × D)/BW, where Conc. = concentration of CHF-6297 in the air inhaled (µg/L); RMV = volume of air inhaled in 1 min (L/min) 0.608 × BW (kg) 0.852; D = duration of exposure to the aerosol (min); and BW = body weight (kg).
Animals were dosed either 1 h (dose–response curve) or 24 h (duration of action) before LPS challenge. Four hours after endotoxin challenge or saline injection, bronchoalveolar lavage fluid (BALF) was collected for cell counting.
Animals were anesthetized with sevoflurane (4% in oxygen) and euthanized by bleeding from the abdominal aorta. BALF was obtained by gently washing the lungs with three aliquots (4 mL each) of 100 mL of solution A [Hank’s balanced salt solution (HBSS) × 10; 100 mL of 100 mM EDTA; 10 mL of 1 mM HEPES; and 790 mL of distilled water]. […] The resulting BALF was centrifuged at 800 × g for 10 min at 4°C. […] The cell count per animal was calculated from the number of cells for 1 µL of BALF multiplied by the volume used for the resuspension of the cell pellet.

[2] = system: IAV-induced airway neutrophilia in HDM-challenged mice; assay: Influenza virus A (H3N2)-induced exacerbation in HDM-sensitized mice; format: in vivo, Balb/c mice
[3] = system: HBSMCs; assay: CSE-evoked IL-8 release in human bronchial smooth muscle cells; format: cell-based
Experimental: Cigarette smoke extract (CSE) was generated as reported previously ([Moretto et al., 2012]). Briefly, aqueous CSE was obtained from the combustion of four cigarettes (Marlboro Red, 12 mg tar, 0.9 mg nicotine each) bubbled through 50 mL of the culture medium and subsequently filtered through a 0.2-μm-pore filter (Millipore, Billerica, MA). To ensure reproducibility among different CSE batches, the absorbance [optical density (OD)] measured at 320 nm was used as a measure of the “strength” of the extract. Dilutions were made with culture media to obtain the desired absorbance. The CSE was freshly prepared on the day of the experiment and immediately used after preparation. Human bronchial smooth muscle cells (HBSMCs) were seeded in DMEM with 10% FBS (50 U/mL penicillin, 0.05 mg/mL streptomycin, and 2 mM L-glutamine) in 48-well plates at a density of 10,000 cells/well, grown to ∼80%–90% confluence and incubated overnight in serum-free DMEM before treatments. All the treatments were performed in serum-free DMEM. The cells were pretreated for 30 min with either the vehicle or CHF6297 or losmapimod before stimulation with freshly prepared CSE, TNF-α, (1 ng/mL), or the vehicle for 18 h at 37°C. Human IL-8 was measured in the collected supernatants by use of a paired-antibody quantitative ELISA kit (BioSource International, Camarillo, CA).

[4] = system: TS-induced neutrophil influx in BALF; assay: BALF neutrophilia induced by tobacco smoke exposure in mice; format: in vivo, C57BL6J female mice; conditions: for neutrophils in BALF: 4 days TS exposure
Experimental: C57BL6J female mice aged 9–10 weeks (Harlan Laboratories S.r.l) in groups of 8 were exposed, via whole-body inhalation, twice daily 1 h apart, for 4 consecutive days, to the tobacco smoke (TS) (generated using “Marlboro Gold: 9 mg of tar and 0.7 mg nicotine”) of two cigarettes/exposure on days 1 and 2, three cigarettes/exposure on day 3, and four cigarettes/exposure on the last exposure day in clear polycarbonate chambers (27 cm × 16 cm × 12 cm). The smoke was introduced into the exposure chambers (21100-790 Ugo Basile, Biological Research Instruments, Comerio, Varese, Italy), with the airflow generated by using a mechanical ventilator (7025 Rodent Ventilator, Ugo Basile). Each exposure chamber was connected to a different ventilator set at a rate of 100 mL/min (frequency: 50 strokes/min; volume: 2 mL/stroke). At regular intervals (after burning two cigarettes), the exposure chambers were opened and aired. Sham and control mice were exposed to air only in the same manner for the same duration of time.
CHF6297 (0.03 and 0.3 mg/kg) and budesonide (0.3 mg/kg), our reference compound and vehicle (0.2% Tween 80 in saline), respectively, were administered intranasally in a volume of 30 µL, 1 h before and 5 h after TS exposure under light isoflurane anesthesia.
A BAL was performed using a volume of 0.6 mL of phosphate-buffered saline that was gently instilled and withdrawn three times using a 12-mL syringe. BALF cells were separated by centrifugation (10 min at 3,070 g), and the supernatant was removed. The resulting cell pellet was resuspended in a known volume of PBS, and the total cell numbers were calculated by counting a stained (Turk’s stain) aliquot under a microscope using a hemacytometer. The cell pellet was resuspended to approximately 10^5 cells per ml, and cytospin slides were prepared by centrifugation (8 min at 72.26 g; Shandon Cytospin; Thermo Shandon Ltd., Runcorn, Cheshire, United Kingdom). The slides were air-dried and stained using Wright–Giemsa stain, following the manufacturer’s instructions. A differential cell count was performed using light microscopy. Approximately 400 cells were counted from each slide. The cells were identified using standard morphometric techniques.

[5] = system: IL-1β-induced neutrophil influx and IL-6 in BALF; assay: IL-1β-induced neutrophilia and IL-6 accumulation in BALF of rats; format: in vivo; conditions: for ED50: Rattus norvegicus, Neutrophil
Experimental: IL-1β is a potent proinflammatory agent that markedly induces lung neutrophilia when administered intratracheally in rats, and p38α MAPK is involved in IL-1β signaling in lung cells ([Laporte et al., 2000]). The dose–response curve and anti-inflammatory duration of action studies were carried out by delivering CHF6297 intratracheally through the DP-4M PennCentury insufflator as micronized dry powder (blended with lactose) at the doses of 0.1, 0.35, and 1 mg/kg, 1 h or 24 h before IL-1β challenge. Four hours after IL-1β challenge, BALF was collected for cell counting and IL-6 quantification.
For the experimental studies performed with IL-1β challenge, the first aliquot of BALF was centrifuged separately: the resulting supernatant was frozen at −80°C for IL-6 ELISA analysis.
Frozen cell-free BALFs were analyzed using an ELISA kit purchased from R&D Systems (Rat IL-6 ELISA Kit; Cat. No. SR6000B, Lot. 307537), according to the manufacturer’s instructions.

[6] = system: rat PBMCs; assay: TNF-α release in LPS-stimulated PBMCs; format: cell-based
Experimental: Peripheral blood mononuclear cells (PBMCs) were isolated from the blood of healthy human volunteers and Wistar rats (250–350 gr; Charles River, Calco, Italy) using a standard density gradient centrifugation technique. The citrated blood was placed onto Histopaque^TM and centrifuged. The PBMCs were then removed from the density gradient interface and washed in phosphate-buffered saline (PBS). The PBMCs were suspended in RPMI 1640 medium (without serum), aliquoted into a 96-well plate, and incubated at 37°C for 3 h in a humidified incubator. After incubation, the medium was replaced (with a medium containing 1% fetal bovine serum), and the plate was incubated at 37°C, for 1 h, in the presence of a test compound or the appropriate vehicle. LPS (10 ng/mL), or an appropriate vehicle control, was then added to the cells, and the plate was returned to the incubator for 18 h. Cell-free supernatants were removed and assayed for TNF-α levels using MSD plates on the SECTOR Imager 6000 (Meso Scale).

[7] = 0.35 mg/kg i.t., 24 h before IL-1β
[8] = 1 mg/kg i.t., 24 h before IL-1β

Structure (SMILES): C[C@H]1CCCCN1c1nnc2ccc(O[C@@H]3CC[C@H](NC(=O)Nc4cc(C(C)(C)C)nn4-c4cnn(CCN(C)C)c4)c4ccccc43)cn12 [CHF6297]
- neutrophils in BALF ([1]; 0.1 mg/kg nose-only dry powder, 1 h before LPS, BALF 4 h after challenge): 1.18 × 10^6 ± 0.27 × 10^6 neutrophils
- neutrophils in BALF ([1]; 0.1 mg/kg nose-only dry powder, 24 h before LPS): 1.9 × 10^6 ± 0.3 × 10^6 neutrophils
- neutrophils in BALF ([1]; 1 mg/kg nose-only dry powder, 1 h before LPS, BALF 4 h after challenge): 0.7 × 10^6 ± 0.12 × 10^6 neutrophils
- neutrophils in BALF ([1]; 1 mg/kg nose-only dry powder, 24 h before LPS): 1.45 × 10^6 ± 0.19 × 10^6 neutrophils
- ED50 ([1]; Rattus norvegicus, Neutrophil, read-out: ED50, inhibition of pulmonary neutrophilia): 0.064 mg/kg
- neutrophils in BAL fluid ([2]; 30 μg/kg i.n. twice daily for 3 days): 2.78 ± 0.28 × 10^5 cells/mL
- neutrophils in BAL fluid ([2]; 100 μg/kg twice daily for 3 days): 1.29 ± 0.119 × 10^5 cells/mL
- maximum inhibition of IL-8 ([3]; CSE-evoked): 100%
- IC50 ([3]; Homo sapiens, 18 h): 0.79 nM
- % of inhibition of neutrophil recruitment ([4]; 0.03 mg/kg i.n., 1 h before and 5 h after TS): 29.7 ± 15.3%
- neutrophils in BALF ([4]; 0.03 mg/kg i.n.): 0.4 ± 0.1 × 10^5 cells/mL
- % inhibition of neutrophilia ([4]; 0.3 mg/kg i.n., 1 h before and 5 h after TS): 62.0 ± 8.4%
- neutrophils in BALF ([4]; 0.3 mg/kg i.n.): 0.2 ± 0.1 × 10^5 cells/mL
- IL-6 concentration in BAL fluid ([5]; 0.1 mg/kg i.t., 1 h before IL-1β): 791 ± 131 pg/mL
- IL-6 concentration in BAL fluid ([5]; 0.35 mg/kg i.t., 1 h before IL-1β): 302 ± 58.34 pg/mL
- IL-6 concentration in BAL fluid [5, 7]: 1,101 ± 253 pg/mL
- neutrophils in BALF [5, 7]: 5.5 × 10^6 ± 814 neutrophils
- neutrophils in BALF ([5]; 1 mg/kg i.t. dry powder, 1 h before IL-1β): 2.3 × 10^6 ± 234 neutrophils
- IL-6 concentration in BAL fluid ([5]; 1 mg/kg i.t., 1 h before IL-1β): 404 ± 108 pg/mL
- IL-6 concentration in BAL fluid [5, 8]: 337 ± 84 pg/mL
- neutrophils in BALF [5, 8]: 2.98 × 10^6 ± 62 neutrophils
- ED50 ([5]; i.t. dry powder, 1 h before IL-1β, read-out: ED50, IL-1β-induced neutrophil influx): 0.22 mg/kg
- ED50 ([5]; i.t., IL-1β challenge, read-out: ED50, increase in IL-6 levels in BALF): 0.82 mg/kg
- IC50 ([6]; PBMC, LPS 10 ng/mL, 18 h): 1.4 nM
- fold less potent than AZD7624 ([6]; TNF-α release): 7 fold
